From ChEMBL document CHEMBL3046460, “Preparation of Dinotefuran Related Compounds and Agonistic Action on SAD2 Hybrid Nicotinic Acetylcholine Receptors Expressed in Xenopus laevis Oocytes” (J Pestic Sci, 2002)

Assay: Agonist activity at Drosophila melanogaster SAD/chicken beta2 nAChR expressed in Xenopus laevis oocytes assessed as inward current by two-electrode voltageclamp technique
Type: cell-based

| SMILES | EC50 |
| --- | --- |
| O=[N+]([O-])/N=C1\NCCN1CC1CCOC1 (centres undefined) | 148 µM |
| CC(=O)OCC[N+](C)(C)C [ACETYLCHOLINE] | 20 µM |
| CN/C(=N/CC1CCOC1)N[N+](=O)[O-] (centres undefined) [DINOTEFURAN] | 224 µM |
| O=[N+]([O-])/N=C1\NCCN1Cc1ccc(Cl)nc1 [IMIDACLOPRID] | 2.82 µM |
